Consider 31 compounds from patent US8822467B2 (Ligand Pharmaceuticals Inc., priority 2009, dated 2014).

The target in the assay is T1, human CRTH2 (Homo sapiens, UniProt Q9Y5Y4).
T1 construct: expressed in transfected cells
T1 sequence (Q9Y5Y4 1-395): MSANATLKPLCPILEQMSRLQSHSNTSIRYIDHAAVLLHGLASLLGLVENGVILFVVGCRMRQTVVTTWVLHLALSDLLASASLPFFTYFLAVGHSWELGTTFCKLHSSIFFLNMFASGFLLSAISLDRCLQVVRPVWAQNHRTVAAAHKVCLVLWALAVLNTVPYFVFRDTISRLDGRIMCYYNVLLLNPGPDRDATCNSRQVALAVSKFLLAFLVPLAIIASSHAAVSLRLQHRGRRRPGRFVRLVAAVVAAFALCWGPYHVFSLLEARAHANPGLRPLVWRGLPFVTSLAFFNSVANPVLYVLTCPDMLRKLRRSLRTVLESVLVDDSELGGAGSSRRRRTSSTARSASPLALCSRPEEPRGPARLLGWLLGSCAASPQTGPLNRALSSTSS
The assay is described as follows: [35S]GTPγS binding assay (SPA) on membranes from CHO-K1 cells stably expressing human CRTH2, stimulated with 60 nM DHK-PGD2. The assay is classed as biochemical. The settings on record: potency class symbols; Table 2; read-out: CRTH2 hGTPγS IC50. Here is the method: [^35S]GTPγS Binding Assay
SPA [^35S]G-TPγS binding was performed on membranes from CHO-K1 cells stably expressing human CRTH2. To a white, clear-bottomed 384-well plate, 4 μg membrane protein was incubated in the binding buffer (20 mM HEPES, pH 7.4, 10 mM MgCl2, 300 mM NaCl, 0.2% BSA) with 60 nM DHK-PGD2, 500 pM [^35S]GTPγS, 10 μM GDP, and 100 μg wheat germ agglutinin-coupled SPA beads (GE Healthcare) with and without increasing concentrations of compounds. The final assay volume was 40 μL and contained 1% DMSO. Samples were incubated for 2 h at ambient temperature. Plates were centrifuged 5 min at 1500 rpm. Plates were read after an additional 4 h using the Trilux 1450 Microbeta (PerkinElmer) with a 30 sec/well reading time.
Background: Binding of GTPγS marks nucleotide exchange on a G protein.
Usually IC50 stands for the concentration needed to halve the response being measured. Regarding `COc1cccc(S(=O)(=O)N(C)Cc2ccc(OCC(=O)O)c(-c3cccc(C(F)(F)F)c3)c2)c1` [Example 153, 2-(3-trifluoromethylphenyl)-4-((3-methoxy-N-methylphenylsulfonamido)methyl)phenoxyacetic acid], the IC50 fell in the range of 1 to 10 µM.

As to `N#Cc1cc(F)cc(-c2cc(CNS(=O)(=O)c3ccc(F)cc3)ccc2OCC(=O)O)c1` [Example 195, 2-(3-cyano-5-fluorophenyl)-4-((4-fluorophenylsulfonamido)methyl)phenoxyacetic acid], the IC50 was less than 0.1 µM.

As to `COc1cc(F)cc(-c2cc(CN(C)S(=O)(=O)c3ccc(F)cc3)ccc2OCC(=O)O)c1` [Example 96, 2-(3-methoxy-5-fluorophenyl)-4-((4-fluoro-N-methylphenylsulfonamido)methyl)phenoxyacetic acid], the IC50 is less than 0.1 µM.

`CN(Cc1ccc(OCC(=O)O)c(-c2cc(C(F)(F)F)ccn2)c1)S(=O)(=O)c1ccc(F)cc1` [Example 168, 2-(4-trifluoromethylpyridinyl)-4-((4-fluoro-N-methylphenylsulfonamido)methyl)phenoxyacetic acid]: the IC50 lay within 1 to 10 µM.

Regarding `CN(Cc1ccc(OCC(=O)O)c(-c2cccc(C#N)c2)c1)S(=O)(=O)c1cc(F)cc(Cl)c1` [Example 99, 2-(3-cyanophenyl)-4-((3-chloro-5-fluoro-N-methylphenylsulfonamido)methyl)phenoxyacetic acid], the IC50 was less than 0.1 µM.

Take `CN(Cc1ccc(OCC(=O)O)c(-c2cccc(C(F)(F)F)c2)c1)S(=O)(=O)c1ccc(C#N)cc1` [Example 120, 2-(3-trifluoromethylphenyl)-4-((4-cyano-N-methylphenylsulfonamido)methyl)phenoxyacetic acid]: the IC50 was 0.1 to 1 µM.

On to `CN(Cc1ccc(OCC(=O)O)c(-c2cccc(O)c2)c1)S(=O)(=O)c1ccc(F)cc1` [Example 132, 2-(3-hydroxyphenyl)-4-((4-fluoro-N-methylphenylsulfonamido)methyl)phenoxyacetic acid], for which the 50% inhibitory concentration (IC50) lay within 0.1 to 1 µM.

`CN(Cc1ccc(OCC(=O)O)c(-c2cc(F)cc(C#N)c2)c1)S(=O)(=O)c1cccs1` [Example 190, 2-(3-cyano-5-fluorophenyl)-4-((N-methylthiophene-2-sulfonamido)methyl)phenoxyacetic acid]: the IC50 was less than 0.1 µM.

Take `CNS(=O)(=O)c1cccc(-c2cc(CN(C)S(=O)(=O)c3ccc(F)cc3)ccc2OCC(=O)O)c1` [Example 54, 2-(3-N-methylsulfamoylphenyl)-4-((4-fluoro-N-methylphenylsulfonamido)methyl)phenoxyacetic acid]: the IC50 was less than 0.1 µM.

Regarding `CN(Cc1ccc(OCC(=O)O)c(-c2ccc(F)c(F)c2)c1)S(=O)(=O)c1ccc(F)cc1` [Example 144, 2-(3,4-difluorophenyl)-4-((4-fluoro-N-methylphenylsulfonamido)methyl)phenoxyacetic acid], the IC50 lay within 0.1 to 1 µM.

As for `CN(Cc1ccc(OCC(=O)O)c(-c2cccc(C#N)c2)c1)S(=O)(=O)c1cccc(C(F)(F)F)c1` [Example 102, 2-(3-cyanophenyl)-4-((3-trifluoromethyl-N-methylphenylsulfonamido)methyl)phenoxyacetic acid], the IC50 lay within 0.1 to 1 µM.

Turning to `COc1ccc(S(=O)(=O)N(C)Cc2ccc(OCC(=O)O)c(-c3cccc(C#N)c3)c2)cc1F` [Example 71, 2-(3-cyanophenyl)-4-((3-fluoro-4-methoxy-N-methylphenylsulfonamido)methyl)phenoxyacetic acid], the IC50 was less than 0.1 µM.

Take `CN(Cc1ccc(OCC(=O)O)c(-c2cccc(S(N)(=O)=O)c2)c1)S(=O)(=O)c1ccc(F)cc1` [Example 52, 2-(3-aminosulfonylphenyl)-4-((4-fluoro-N-methylphenylsulfonamido)methyl)phenoxyacetic acid]: the IC50 was less than 0.1 µM.

Take `CN(Cc1ccc(OCC(=O)O)c(-c2ccc(F)c(S(C)(=O)=O)c2)c1)S(=O)(=O)c1ccc(F)cc1` [Example 28, 2-((4-fluoro-3-(methylsulfonyl)phenyl)-4-((4-fluoro-N-methylphenylsulfonamido)methyl)phenoxy)acetic acid]: the IC50 is less than 0.1 µM.

For `CN(C)C(=O)c1cccc(-c2cc(CN(C)S(=O)(=O)c3ccc(F)cc3)ccc2OCC(=O)O)c1` [Example 138, 2-(3-dimethylaminocarbonylphenyl)-4-((4-fluoro-N-methylphenylsulfonamido)methyl)phenoxyacetic acid], the IC50 fell in the range of 0.1 to 1 µM.

With `C[C@@H](Oc1ccc(CN(C)S(=O)(=O)c2ccc(F)cc2)cc1-c1cccc(C(F)(F)F)c1)C(=O)O` [Example 35, (R)-2-(2-(3-trifluoromethylphenyl)-4-((4-fluoro-N-methylphenylsulfonamido)methyl)phenoxy)propanoic acid], the IC50 was in the range of 1 to 10 µM.

On to `CN(Cc1ccc(OCC(=O)O)c(-c2ccc(Cl)cc2)c1)S(=O)(=O)c1ccccc1` [Example 179, 2-(4-chlorophenyl)-4-((N-methylphenylsulfonamido)methyl)phenoxyacetic acid], for which the IC50 was 1 to 10 µM.

As to `CN(Cc1ccc(OCC(=O)O)c(-c2cnn(C)c2)c1)S(=O)(=O)c1ccc(F)cc1` [Example 186, 2-(1-methyl-1H-pyrazol-4-yl)-4-((4-fluoro-N-methylphenylsulfonamido)methyl)phenoxyacetic acid], the IC50 was in the range of 1 to 10 µM.

`CN(Cc1cc(-c2cccc(C#N)c2)c(OCC(=O)O)cc1F)S(=O)(=O)c1ccccc1` [Example 98, 2-(3-cyanophenyl)-4-((N-methylphenylsulfonamido)methyl)-5-fluorophenoxyacetic acid]: the IC50 is less than 0.1 µM.

On to `CN(Cc1ccc(OCC(=O)O)c(-c2ccc(F)c(F)c2)c1)S(=O)(=O)c1ccccc1` [Example 154, 2-(3,4-difluorophenyl)-4-((N-methylphenylsulfonamido)methyl)phenoxyacetic acid], for which the IC50 lay within 1 to 10 µM.

As for `CN(Cc1ccc(OCC(=O)O)c(-c2cc(F)cc(C#N)c2)c1)S(=O)(=O)c1ccc(F)c(Cl)c1` [Example 55, 2-(3-cyano-5-fluorophenyl)-4-((3-chloro-4-fluoro-N-methylphenylsulfonamido)methyl)phenoxyacetic acid], the IC50 is less than 0.1 µM.

In the case of `CN(Cc1ccc(OCC(=O)O)c(-c2cncc(C#N)c2)c1)S(=O)(=O)c1ccc(F)cc1` [Example 108, 2-(3-cyano-5-pyridinyl)-4-((4-fluoro-N-methylphenylsulfonamido)methyl)phenoxyacetic acid], the IC50 is 0.1 to 1 µM.

`CC(C)Oc1cc(F)cc(-c2cc(CN(C)S(=O)(=O)c3ccc(F)cc3)ccc2OCC(=O)O)c1` [Example 100, 2-(3-isopropoxy-5-fluorophenyl)-4-((4-fluoro-N-methylphenylsulfonamido)methyl)phenoxyacetic acid]: the IC50 is less than 0.1 µM.

In the case of `CN(Cc1ccc(OCC(=O)O)c(-c2cccc(C#N)c2)c1)S(=O)(=O)c1cccc(F)c1` [Example 89, 2-(3-cyanophenyl)-4-((3-fluoro-N-methylphenylsulfonamido)methyl)phenoxyacetic acid], the half-maximal inhibitory concentration (IC50) was less than 0.1 µM.

Take `CN(Cc1ccc(OCC(=O)O)c(-c2cccc(C(F)(F)F)c2)c1)S(=O)(=O)c1ccc(F)c(F)c1` [Example 91, 2-(3-trifluoromethylphenyl)-4-((3,4-difluoro-N-methylphenylsulfonamido)methyl)phenoxyacetic acid]: the IC50 was less than 0.1 µM.

As to `CN(Cc1cc(-c2cccc(C#N)c2)c(OCC(=O)O)cc1F)S(=O)(=O)c1ccc(F)c(Cl)c1` [Example 43, 2-(3-cyanophenyl)-4-((3-chloro-4-fluoro-N-methylphenylsulfonamido)methyl)-5-fluorophenoxyacetic acid], the IC50 is less than 0.1 µM.

Take `CN(Cc1ccc(OCC(=O)O)c(-c2cccc(C(F)(F)F)c2)c1)S(=O)(=O)c1ccccn1` [Example 173, 2-(3-trifluoromethylphenyl)-4-((N-methylpyridine-2-sulfonamido)methyl)phenoxyacetic acid]: the IC50 fell in the range of 1 to 10 µM.

Regarding `CN(Cc1ccc(OCC(=O)O)c(-c2cccc(S(C)(=O)=O)c2)c1)S(=O)(=O)c1ccccc1` [Example 78, 2-(3-methylsulfonylphenyl)-4-((N-methylphenylsulfonamido)methyl)phenoxyacetic acid], the IC50 was less than 0.1 µM.

On to `CN(Cc1ccc(OCC(=O)O)c(-c2cccc(C(F)(F)F)c2)c1)S(=O)(=O)c1ccc(Cl)cc1` [Example 116, 2-(3-trifluoromethylphenyl)-4-((4-chloro-N-methylphenylsulfonamido)methyl)phenoxyacetic acid], for which the IC50 is 0.1 to 1 µM.

Consider `CC(c1ccc(OCC(=O)O)c(-c2cccc(C(F)(F)F)c2)c1)N(C)S(=O)(=O)c1ccc(F)c(F)c1` (stereo not shown) [Example 93, 2-(3-trifluoromethylphenyl)-4-(1-(3,4-difluoro-N-methylphenylsulfonamido)ethyl)phenoxyacetic acid], for which the IC50 is less than 0.1 µM.

With `CN(Cc1ccc(OCC(=O)O)c(-c2cccc(C(=O)N3CCOCC3)c2)c1)S(=O)(=O)c1ccc(F)cc1` [Example 175, 2-(3-morpholinocarbonylphenyl)-4-((4-fluoro-N-methylphenylsulfonamido)methyl)phenoxyacetic acid], the IC50 was in the range of 1 to 10 µM.
